Data set [1] has as its system cocaine-induced conditioned place preference. Conditions: rats; cited from earlier work.
In data set [2] the test system is cocaine self-administration. To be noted: cited from earlier work.
The test system of data set [3] is rat pituitary corticotropes. To be noted: cited from earlier work.
Data set [4] has as its system plasma corticosterone. To be noted: rats; cited from earlier work.
Data set [5] concerns the target T1, CRF1 receptors (Rattus norvegicus, UniProt P35353).
T1 sequence (P35353 24-415): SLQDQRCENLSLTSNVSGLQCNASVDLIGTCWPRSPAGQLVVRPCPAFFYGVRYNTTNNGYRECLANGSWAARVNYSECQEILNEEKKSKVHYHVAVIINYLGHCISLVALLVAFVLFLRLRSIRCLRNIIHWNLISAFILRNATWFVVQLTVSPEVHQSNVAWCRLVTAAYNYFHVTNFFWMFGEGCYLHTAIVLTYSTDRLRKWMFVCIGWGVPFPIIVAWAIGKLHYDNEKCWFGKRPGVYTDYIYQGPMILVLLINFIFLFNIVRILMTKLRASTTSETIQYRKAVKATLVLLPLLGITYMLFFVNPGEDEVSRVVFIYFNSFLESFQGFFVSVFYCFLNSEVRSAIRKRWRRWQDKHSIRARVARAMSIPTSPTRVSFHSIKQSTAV
The data set can be described thus: [125I]-Tyr0-sauvagine competition binding, rat cerebellar membrane homogenates. On the set-up: from tissue; host or cells: rat cerebellum, membrane homogenate. To be noted: six independent experiments, read-out: PIC50, displacement of specific [125I]-Tyr0-sauvagine binding (converted). The protocol:
Binding activity of MPZP was determined in a competition assay using […] (2200 Ci/mmol; Perkin Elmer, Waltham, Mass.) as the radioligand. Cerebellum was homogenized in homogenizing buffer (Dulbecco's phosphate-buffered saline [PBS]:1.5 mM KH2PO4, 8.1 mM Na2HPO4, 2.7 mM KCl, 138 mM NaCl, pH 7.2, supplemented with 10 mM MgCl2, 2 mM EGTA) using a Polytron (Dispersing and Mixing Technology, Kinematica, Littau-Lucerne, Switzerland) at setting 6 for 2×15 seconds on ice. The homogenate was centrifuged at 45,000×g for 20 minutes at 4° C. The pellet was resuspended and spun at 45,000×g for 20 minutes at 4° C. The final pellet was resuspended in assay buffer (homogenizing buffer supplemented with protease inhibitor; 1 tablet/10 ml; Sigma CAT#58829-20TAB, St. Louis, Mo., pH 7.4) using a Polytron.
Med. Chem. (2000) 8:181-189], whose structural formula is shown below.
Total binding was determined using assay buffer in lieu of a CRF1 antagonist, and nonspecific binding was determined in the presence of 1 μM unlabeled sauvagine. The final radioligand concentration was 0.2 nM, and the reaction was incubated at room temperature for 2 hours. […] The pellet-containing tip was cut off and counted in an automated 10-detector gamma counter (MicroMedic Apex, ICN Biomedical, Costa Mesa, Calif.) at 80% efficiency. […]

The test system of data set [6] is extracellular CRF-L-IR in the central nucleus of the amygdala. The data set can be described thus: In vivo microdialysis and radioimmunoassay of CRF-like immunoreactivity in the central nucleus of the amygdala. On the set-up: species or system rat. To be noted: mecamylamine 1.5 mg/kg i.p. The procedure: The changes in interstitial levels of CRF-like-immunoreactivity (CRF-L-IR) in the central nucleus of the amygdala were examined during mecamylamine-precipitated withdrawal (1.5 mg/kg, ip). Rats were subcutaneously implanted with osmotic minipumps (model 2m12, 14 days, 5 μL/hour; Durect Corporation, Palo Alto, Calif.) delivering either saline (non-dependent, n=5) or nicotine (nicotine-dependent, n=7) (3.16 mg/kg/day, free base, s.c.) and a microdialysis guide cannula (SciPro Inc., Sanborn N.Y., USA) stereotaxically positioned 1 mm above the central nucleus of the amygdala using the following coordinates (AP −3.3 mm; ML ±4.2 mm; V −6.5 mm, from dura with flat skull). After 14 days of pump exposure, a microdialysis probe (1 mm PES membrane, 15 kDA MW cutoff; SciPro Inc., Sanborn N.Y., USA) was lowered into the guide cannula and allowed to equilibrate for 12 hours (1 μl/min flow rate, artificial cerebrospinal fluid). […]
Dialysate CRF-like immunoreactivity was quantified with a sensitive and specific solid-phase radioimmunoassay (RIA) adapted from Zorrilla et al. Psychopharmacology (Berl). […] Wells were rinsed, blotted dry and separated, and residual radioactivity was counted by a gamma counter for 5 minutes per well.

The conditions of data set [7]: Debruyne et al. 2003; cited from earlier work.
Data set [8] has as its system precipitated-withdrawal induced anxiety-like behavior. In words: Defensive burying test during mecamylamine-precipitated nicotine withdrawal. It is filed as in vivo, rat. To be noted: for Burying / Freezing / Grooming / Latency to bury / Rearing / Resting: Vehicle + Mecamylamine. The protocol: Nicotine hydrogen tartrate salt (Sigma, Natick) was dissolved in saline at pH 7.4 and experimenter-administered via minipump or self-administered via indwelling jugular catheter. Doses are expressed as free base. Mecamylamine (Sigma; Natick, Mass.) was dissolved in saline and administered i.p. (1 ml/kg). The CRF1 antagonist (N,N-bis(2-methoxyethyl)-3-(4-methoxy-2-methylphenyl)-2,5-dimethyl-pyrazolo-[1,5α]pyrimidin-7-amine, or MPZP) was synthesized at The Scripps Research Institute by Dr. P. Wirshing, dissolved in 20% hydroxypropyl beta-cyclodextrin (Cavitron, Cargill) in isotonic saline at pH 4.5 and administered s.c. (2 ml/kg, 45 to 60 min before testing). Rat/human CRF was supplied by Dr. Jean Rivier, The Salk Institute. CRF was dissolved in 1× PBS (pH 7.4) and prepared fresh few minutes before intracerebral injection. The doses and time of injections were selected based on previous studies [Richardson et al., Program No. 783. 4 Neuroscience Meeting Planner. Atlanta, Ga.: Society for Neuroscience, OnlineI (2006); Specio et al., Program No. 777. 11 Neuroscience Meeting Planner. Washington, D.C.: Society for Neuroscience, Online (2004)].
Rats were subcutaneously implanted with osmotic minipumps delivering either saline (n=33) or nicotine (n=31) (3.16 mg/kg/day, free base, s.c.) as described above. After 14 days of pump exposure, testing was performed 5-8 hours into the dark cycle in a standard cage with 2 inches of bedding (wood shavings) along the bottom and a small hole centered in one side one inch above the bedding to accommodate the shock-probe. Rats were habituated (45 minutes) to the test cage for 2 days prior to testing. On the test day, mecamylamine or its vehicle were administered 30 minutes before behavioral testing, and the CRF1 antagonist or its vehicle were administered 45 minutes before behavioral testing (n=7-9 per group). On contact with the probe and shock delivery (using a Coulbourn precision shocker, 1.5 mA, AC, <1 s), verified by a startle response, the probe was deactivated. The latency and duration of probe-directed burying, rearing, resting, grooming, and freezing were measured from videotape over a 10 minutes period by an experimenter blind to the subject treatment condition using a computer program.

Data set [9] deals with anxiety-like behavior of naive rats. In words: Defensive burying test after bilateral CRF infusion in the central nucleus of the amygdala. It is filed as in vivo, rat. To be noted: CRF 30 pmol total dose, bilateral intra-amygdala. The procedure:
To confirm that increases of CRF in the central nucleus of the amygdala elicit anxiety-like behavior, anxiety-like behavior was measured using the defensive burying test, after bilateral infusion of CRF (30 pmol total dose) or vehicle in the central nucleus of the amygdala of naive rats one minute before beginning of the burying test. CRF administered directly into the amygdala increased the time spent burying and decreased the latency to bury during the first 5 minutes after infusion (Table 2),
Rats were anesthetized with an isoflurane-oxygen mixture, and 26-gauge stainless steel guide cannulas (Plastics One, Roanoke, Va.) aimed 2 mm above the central nucleus of the amygdala stereotaxically were implanted bilaterally: AP −2.6 mm; ML ±4.2 mm; V −5.2 mm, from dura, with flat skull (Paxinos and Watson, 1998). The guide cannulas were secured to the skull with dental cement and anchor screws, and guide cannulas were maintained with stylets. Intracerebral injections were administered with the use of injectors (33-gauge; Plastics One) that projected 2 mm past the guide cannula to the central nucleus of the amygdala. The injectors were attached to 70 cm of calibrated polyethylene-20 tubing preloaded with drug solution. This cohort of rats had been extensively handled previously in the context of a food intake study, in which they received administration of a CRF1 receptor antagonist subcutaneously and into the central nucleus of the amygdala in a Latin-square design. A washout period of 7 days was imposed before the present study with all subjects maintained on chow, during which animals were handled daily. Rats were randomly assigned to CRF vs. vehicle conditions balanced for previous diet history, which was statistically unrelated to performance in the defensive burying test. The CRF group (n=5) was infused bilaterally (30 pmol total dose) with a volume of 0.25 μL/side over 30 seconds using Hamilton microsyringes and 2 infusion pumps (Harvard Apparatus, Holliston, Mass.). The control group (n=5) received the same volume of PBS. Injectors were removed from guide cannulae 1 minute after the end of the infusions, and rats were returned to the home cage for 1 minute before being tested in the defensive burying test.

Setting [10] is: nicotine-dependent rats, mecamylamine injection.

Read-outs that look alike come from different tables or passages of the source. No end group written: not given here.

Take `CCCCN(CC)c1nc(C)nc2c1c(C)cn2-c1c(C)cc(C)cc1C` [CP-154,526]: in [1], the “cocaine-induced conditioned place preference” value was “reduced”. Further, the cocaine self-administration entry in data set [2] (0.5 mg/kg/injection cocaine, rats) is on record as “reduced”; in [2] (rats with limited daily drug access (1 h/day), pretreatment), “dose-dependent decreases”. Also, the food-reinforced responding entry in [2] (rats, pretreatment) is “does not affect”.

For the compound `CCC(CC)Nc1cc(C)nc2c(-c3ccc(OC)cc3C)c(C)nn12` [DMP904], the ACTH release entry in data set [3] is listed as “inhibited”. Further, the “stress-induced increase of plasma corticosterone” value in data set [4] is “dose-dependently inhibited”. In addition, the IC50 in data set [5] was 2.14 nM.

Regarding `CNC1(C)C2CCC(C2)C1(C)C` (centres unmarked) [mecamylamine, reference compound], in data set [6] (nicotine-dependent rats), the “increase of CRF-L-IR in the central amygdala compared with baseline” value was “over 500%”. Moreover, the “increase of CRF-L-IR in the central amygdala” value in [6] (saline-treated (non-dependent) rats) was “not observed”. The pharmacokinetic half-life entry in data set [7] is “about 1 hour”. Also, in data set [8] (nicotine pump), the Burying is 271 ± 46 s, the Freezing stood at 1 ± 1 s, the Grooming was determined as 16 ± 5 s and the Latency to bury worked out at 31 ± 9 s. Also, in data set [8] (nicotine pump), the Rearing stood at 105 ± 25 s and the Resting was determined as 49 ± 21 s. In addition, in [8] (setting [10]), the “change in latency to bury compared to vehicle injection” value is −70% and the “change in time spent burying compared to vehicle injection” value is on record as “+243%”. Further, the anxiety-like behavior result in [8] (non-dependent rats, mecamylamine injection) is recorded as “did not alter”. In [8] (saline pump), the Burying is 135 ± 39 s, the Freezing amounted to 1 ± 1 s, the Grooming turned out to be 30 ± 12 s and the Latency to bury amounted to 87 ± 25 s. In addition, in [8] (saline pump), the Rearing came to 118 ± 14 s and the Resting turned out to be 67 ± 24 s.

“CRF: Corticotropin-releasing factor, a 41 amino-acid residue peptide; rat/human CRF infused into the central nucleus of the amygdala (SEEPPISLDLTFHLLREVLEMARAEQLAQQAHSNRKLMEII; ends and bridges not checked; UniProt P06850 154-194, looked up)”: in [9], the Grooming is 30 ± 27 s, the “Latency to bury” value came to 165 ± 91 s and the Rearing was found to be 91 ± 15 s. For the same compound, the Burying in data set [9] (first 5 minutes after infusion) worked out at 7.1 ± 4.7 s.

The values above are taken from US20100249138A1, “MPZP: A SMALL MOLECULE CORTICOTROPIN-RELEASING FACTOR TYPE 1 RECEPTOR (CRF1) ANTOGONIST” (priority 2007, published 2010).
